Reference: ChEMBL document CHEMBL1135007, “Synthesis and pharmacological evaluation of a new class of peroxisome proliferator-activated receptor modulators” (Bioorg Med Chem Lett, 2002)

What was measured:
[1] = biological target: T1, Peroxisome proliferator-activated receptor gamma (Homo sapiens, UniProt P37231); test: Ligand binding affinity was determined by displacement of a tritiated tracer by the unlabeled compound to a GST-PPAR fusion protein for Peroxisome proliferator activated receptor gamma containing residues
T1 sequence (P37231 whole entry): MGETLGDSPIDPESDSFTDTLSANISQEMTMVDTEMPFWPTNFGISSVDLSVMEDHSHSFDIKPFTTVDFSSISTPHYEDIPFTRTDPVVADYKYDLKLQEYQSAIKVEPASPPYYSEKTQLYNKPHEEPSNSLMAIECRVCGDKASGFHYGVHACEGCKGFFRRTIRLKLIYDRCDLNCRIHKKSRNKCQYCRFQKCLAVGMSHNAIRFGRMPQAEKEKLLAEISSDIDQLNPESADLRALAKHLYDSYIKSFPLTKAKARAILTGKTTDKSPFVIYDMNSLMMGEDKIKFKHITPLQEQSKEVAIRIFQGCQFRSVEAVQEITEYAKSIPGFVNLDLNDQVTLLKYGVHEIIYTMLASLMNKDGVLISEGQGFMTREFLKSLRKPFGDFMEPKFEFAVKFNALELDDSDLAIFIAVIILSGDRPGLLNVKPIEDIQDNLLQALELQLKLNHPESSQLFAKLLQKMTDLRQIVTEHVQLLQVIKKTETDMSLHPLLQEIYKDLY

[2] = biological target: T1, Peroxisome proliferator-activated receptor gamma; test: Transactivation potency was measured by luciferase activity in Caco- 2/TC7 cells transiently co-transfected for the fusion-protein Gal4-PPAR gamma; assay type: functional, cell-based
[3] = biological target: T2, Peroxisome proliferator-activated receptor alpha (Homo sapiens, UniProt Q07869); test: Ligand binding affinity was determined by displacement of a tritiated tracer by the unlabeled compound to a GST-PPAR fusion protein for Peroxisome proliferator activated receptor alpha containing residues
T2 sequence (Q07869 whole entry): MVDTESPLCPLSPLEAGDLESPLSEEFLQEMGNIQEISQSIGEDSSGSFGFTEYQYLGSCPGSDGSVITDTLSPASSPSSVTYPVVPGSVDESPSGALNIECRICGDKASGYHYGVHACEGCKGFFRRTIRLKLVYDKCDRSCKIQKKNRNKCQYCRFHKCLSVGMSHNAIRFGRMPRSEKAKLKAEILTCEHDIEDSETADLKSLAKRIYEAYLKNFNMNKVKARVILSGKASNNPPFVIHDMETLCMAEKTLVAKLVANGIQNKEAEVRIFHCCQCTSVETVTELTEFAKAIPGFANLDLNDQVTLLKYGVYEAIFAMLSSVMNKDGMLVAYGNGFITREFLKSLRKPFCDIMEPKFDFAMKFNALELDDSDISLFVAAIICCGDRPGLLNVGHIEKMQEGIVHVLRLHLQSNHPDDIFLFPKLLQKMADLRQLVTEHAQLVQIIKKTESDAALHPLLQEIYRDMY

[4] = biological target: T2, Peroxisome proliferator-activated receptor alpha; test: Transactivation potency was measured by luciferase activity in Caco- 2/TC7 cells transiently co-transfected for the fusion-protein Gal4-PPAR alpha; assay type: functional, cell-based

SMILES	Ki [1] [nM]	EC50 [2] [nM]	Ki [3] [nM]	EC50 [4] [nM]
O=C(Nc1ccc(Oc2ncccn2)cc1C(=O)O)c1ccc(Cl)cc1Cl	100	1300	> 100000	> 100000
O=C(Nc1ccc(Oc2ccc([N+](=O)[O-])cn2)cc1C(=O)O)c1ccc(Cl)cc1Cl	180	400	> 100000	> 100000
O=C(Nc1ccc(-c2ccsc2)cc1C(=O)O)c1ccc(Cl)cc1Cl	900	700	28000	12000
CCOc1cccc(-c2ccc(NC(=O)c3ccc(Cl)cc3Cl)c(C(=O)O)c2)c1	1200	300	> 100000	> 100000
Cc1ccc(NC(=O)c2ccc(Cl)cc2Cl)c(C(=O)O)c1	2200	1600	30000	9500
O=C(Nc1ccc(-c2ccco2)cc1C(=O)O)c1ccc(Cl)cc1Cl	500	1000	22000	10000
O=C(Nc1ccc(-c2cccc3cccnc23)cc1C(=O)O)c1ccc(Cl)cc1Cl	700	300	> 100000	> 100000
O=C(Nc1ccc(Oc2cncc(Cl)n2)cc1C(=O)O)c1ccc(Cl)cc1Cl	160	450	21000	> 100000
O=C(Nc1ccc(OCCc2cccs2)cc1C(=O)O)c1ccc(Cl)cc1Cl	1000	700	> 100000	> 100000
CSCCOc1ccc(NC(=O)c2ccc(Cl)cc2Cl)c(C(=O)O)c1	1600	600	19000	2500
CCOc1ccc(COc2ccc(NC(=O)c3ccc(Cl)cc3Cl)c(C(=O)O)c2)cc1	3600	700	> 100000	> 100000
O=C(Nc1ccc(OCc2cccs2)cc1C(=O)O)c1ccc(Cl)cc1Cl	400	300	25000	5000
O=C(O)c1cccc(-c2ccc(NC(=O)c3ccc(Cl)cc3Cl)c(C(=O)O)c2)c1	1400	> 100000	67000	> 100000
O=C(Nc1ccc(Oc2ncccc2[N+](=O)[O-])cc1C(=O)O)c1ccc(Cl)cc1Cl	170	400	> 100000	> 100000
O=C(Nc1ccc(OCCc2ccsc2)cc1C(=O)O)c1ccc(Cl)cc1Cl	600	800	20000	3800
O=C(Nc1ccc(OCCc2ccccn2)cc1C(=O)O)c1ccc(Cl)cc1Cl	1500	3200	> 100000	
